Measurements from patent publication US20200121801A1, “DRUG DELIVERY CONJUGATES CONTAINING UNNATURAL AMINO ACIDS AND METHODS FOR USING” (priority 2012, published 2020).
Entries after “also recorded” stand apart in the source; their conditions may differ. Marks after values point to notes of the source that are not given here.

Tests used:
[1] = molecular target: T1, folate receptors (FRs) on KB cells (Homo sapiens, UniProt P15328); assay: Relative affinity assay (3H-folic acid competition) on KB cells; format: binding; settings: folic acid = 1; in 10% serum/FDRPMI
T1 construct: FR-positive KB cells are heavily seeded into 24-well cell culture plates; endogenous in cells; host or cells: KB cells
Method: METHOD. Relative Affinity Assay. The affinity for folate receptors (FRs) relative to folate is determined according to a previously described method (Westerhof, G. R., J. H. Schornagel, et al. (1995) Mol. Pharm. 48: 459-471) with slight modification. Briefly, FR-positive KB cells are heavily seeded into 24-well cell culture plates and allowed to adhere to the plastic for 18 h. Spent incubation media is replaced in designated wells with folate-free RPMI (FFRPMI) supplemented with 100 nM ^3H-folic acid in the absence and presence of increasing concentrations of test article or folic acid. Cells are incubated for 60 min at 37° C. and then rinsed 3 times with PBS, pH 7.4. Five hundred microliters of 1% SDS in PBS, pH 7.4, is added per well. Cell lysates are then collected and added to individual vials containing 5 mL of scintillation cocktail, and then counted for radioactivity. Negative control tubes contain only the ^3H-folic acid in FFRPMI (no competitor). Positive control tubes contain a final concentration of 1 mM folic acid, and CPMs measured in these samples (representing non-specific binding of label) are subtracted from all samples.

[2] = test system: KB cells (FR+); format: cell-based, Human
Method: METHOD. Inhibition of Cellular DNA Synthesis. The compounds described herein are evaluated using an in vitro cytotoxicity assay that predicts the ability of the drug to inhibit the growth of folate receptor-positive cells, such as KB cells, RAW264.7 macrophages, and the like. It is to be understood that the choice of cell type can made on the basis of the susceptibility of those selected cells to the drug that forms the conjugate. The test compounds are comprised of folate linked to a respective chemotherapeutic drug, as prepared according to the processes described herein. The test cells are exposed to varying concentrations of folate-drug conjugate, and also in the absence or presence of at least a 100-fold excess of folic acid to assess activity as being specific to folate receptor mediation.
EXAMPLE. Conjugates of cytotoxic drugs described herein are active against KB cells. The activity is mediated by the folate receptor as indicated by competition experiments using co-administered folic acid. KB cells are exposed for up to 7 h at 37° C. to the indicated concentrations of folate-drug conjugate in the absence or presence of at least a 100-fold excess of folic acid. The cells are then rinsed once with fresh culture medium and incubated in fresh culture medium for 72 hours at 37° C. Cell viability was assessed using a ^3H-thymidine incorporation assay.
(§1) METHOD. In vitro activity against various cancer cell lines. IC50 values are generated for various cell lines. Cells are heavily seeded in 24-well Falcon plates and allowed to form nearly confluent monolayers overnight. Thirty minutes prior to the addition of the test compound, spent medium is aspirated from all wells and replaced with fresh folate-deficient RPMI medium (FFRPMI). A subset of wells are designated to receive media containing 100 μM folic acid. The cells in the designated wells are used to determine the targeting specificity. Without being bound by theory it is believed herein that the cytotoxic activity produced by test compounds in the presence of excess folic acid, i.e. where there is competition for FR binding, corresponds to the portion of the total activity that is unrelated to FR-specific delivery. Following one rinse with 1 mL of fresh FFRPMI containing 10% heat-inactivated fetal calf serum, each well receives 1 mL of medium containing increasing concentrations of test compound (4 wells per sample) in the presence or absence of 100 μM free folic acid as indicated. Treated cells are pulsed for 2 h at 37° C., rinsed 4 times with 0.5 mL of media, and then chased in 1 mL of fresh medium up to 70 h. Spent medium is aspirated from all wells and replaced with fresh medium containing 5 μCi/mL ^3H-thymidine. Following a further 2 h 37° C. incubation, cells are washed 3 times with 0.5 mL of PBS and then treated with 0.5 mL of ice-cold 5% trichloroacetic acid per well. After 15 min, the trichloroacetic acid is aspirated and the cell material solubilized by the addition of 0.5 mL of 0.25 N sodium hydroxide for 15 min. A 450 μL aliquot of each solubilized sample is transferred to a scintillation vial containing 3 mL of Ecolume scintillation cocktail and then counted in a liquid scintillation counter. Final results are expressed as the percentage of ^3H-thymidine incorporation relative to untreated controls.

[3] = test system: NC1/ADR-RES-Cl2 (FR+); assay: In vitro activity, 3H-thymidine incorporation, NC1/ADR-RES-Cl2; format: cell-based, Human
Method: as §1, with “Treated cells are pulsed for 2 h at 37° C., rinsed 4 times with 0.5 mL of media, and then chased in 1 mL of fresh medium up to 70 h. Spent medium is aspirated from all wells and replaced with fresh medium containing 5 μCi/mL ^3H-thymidine. Following a further 2 h 37° C. incubation, cells are washed 3 times with 0.5 mL of PBS and then treated with 0.5 mL of ice-cold 5% trichloroacetic acid per well. After 15 min, the trichloroacetic acid is aspirated and the cell material solubilized by the addition of 0.5 mL of 0.25 N sodium hydroxide for 15 min.” left out

[4] = test system: IGROV1 (FR+); assay: In vitro activity, 3H-thymidine incorporation, IGROV1; format: cell-based, Human
Method: as §1, with “Treated cells are pulsed for 2 h at 37° C., rinsed 4 times with 0.5 mL of media, and then chased in 1 mL of fresh medium up to 70 h. Spent medium is aspirated from all wells and replaced with fresh medium containing 5 μCi/mL ^3H-thymidine. Following a further 2 h 37° C. incubation, cells are washed 3 times with 0.5 mL of PBS and then treated with 0.5 mL of ice-cold 5% trichloroacetic acid per well. After 15 min, the trichloroacetic acid is aspirated and the cell material solubilized by the addition of 0.5 mL of 0.25 N sodium hydroxide for 15 min.” left out

[5] = test system: MDA-MB-231 (FR+); assay: In vitro activity, 3H-thymidine incorporation, MDA-MB-231; format: cell-based, Human
Method: as §1, with “Treated cells are pulsed for 2 h at 37° C., rinsed 4 times with 0.5 mL of media, and then chased in 1 mL of fresh medium up to 70 h. Spent medium is aspirated from all wells and replaced with fresh medium containing 5 μCi/mL ^3H-thymidine. Following a further 2 h 37° C. incubation, cells are washed 3 times with 0.5 mL of PBS and then treated with 0.5 mL of ice-cold 5% trichloroacetic acid per well. After 15 min, the trichloroacetic acid is aspirated and the cell material solubilized by the addition of 0.5 mL of 0.25 N sodium hydroxide for 15 min.” left out

[6] = test system: A549 (FR-); assay: In vitro activity, 3H-thymidine incorporation, A549; format: cell-based, Human; settings: evaluated from 0.1-100 nM
Method: as §1, with “Treated cells are pulsed for 2 h at 37° C., rinsed 4 times with 0.5 mL of media, and then chased in 1 mL of fresh medium up to 70 h. Spent medium is aspirated from all wells and replaced with fresh medium containing 5 μCi/mL ^3H-thymidine. Following a further 2 h 37° C. incubation, cells are washed 3 times with 0.5 mL of PBS and then treated with 0.5 mL of ice-cold 5% trichloroacetic acid per well. After 15 min, the trichloroacetic acid is aspirated and the cell material solubilized by the addition of 0.5 mL of 0.25 N sodium hydroxide for 15 min.” left out

[7] = test system: H23 (FR-); assay: In vitro activity, 3H-thymidine incorporation, H23; format: cell-based, Human; settings: evaluated from 0.1-100 nM
Method: as §1, with “Treated cells are pulsed for 2 h at 37° C., rinsed 4 times with 0.5 mL of media, and then chased in 1 mL of fresh medium up to 70 h. Spent medium is aspirated from all wells and replaced with fresh medium containing 5 μCi/mL ^3H-thymidine. Following a further 2 h 37° C. incubation, cells are washed 3 times with 0.5 mL of PBS and then treated with 0.5 mL of ice-cold 5% trichloroacetic acid per well. After 15 min, the trichloroacetic acid is aspirated and the cell material solubilized by the addition of 0.5 mL of 0.25 N sodium hydroxide for 15 min.” left out

[8] = test system: HepG2 (FR-); assay: In vitro activity, 3H-thymidine incorporation, HepG2; format: cell-based, Human; settings: evaluated from 0.1-100 nM
Method: as §1, with “Treated cells are pulsed for 2 h at 37° C., rinsed 4 times with 0.5 mL of media, and then chased in 1 mL of fresh medium up to 70 h. Spent medium is aspirated from all wells and replaced with fresh medium containing 5 μCi/mL ^3H-thymidine. Following a further 2 h 37° C. incubation, cells are washed 3 times with 0.5 mL of PBS and then treated with 0.5 mL of ice-cold 5% trichloroacetic acid per well. After 15 min, the trichloroacetic acid is aspirated and the cell material solubilized by the addition of 0.5 mL of 0.25 N sodium hydroxide for 15 min.” left out

[9] = test system: AN3CA (FR-); assay: In vitro activity, 3H-thymidine incorporation, AN3CA; format: cell-based, Human; settings: evaluated from 0.1-100 nM
Method: as §1, with “Treated cells are pulsed for 2 h at 37° C., rinsed 4 times with 0.5 mL of media, and then chased in 1 mL of fresh medium up to 70 h. Spent medium is aspirated from all wells and replaced with fresh medium containing 5 μCi/mL ^3H-thymidine. Following a further 2 h 37° C. incubation, cells are washed 3 times with 0.5 mL of PBS and then treated with 0.5 mL of ice-cold 5% trichloroacetic acid per well. After 15 min, the trichloroacetic acid is aspirated and the cell material solubilized by the addition of 0.5 mL of 0.25 N sodium hydroxide for 15 min.” left out

[10] = test system: KB tumors; assay: Inhibition of tumor growth, s.c. KB tumors in nu/nu mice; format: in vivo; design: key to In vivo activity (e): CR = complete response, where tumor volume, as defined herein, during the observation period was zero for all test animals in the group; settings: for CR: 2 weeks
Method: METHOD. Inhibition of Tumor Growth in Mice. […] For tumor cell inoculation, 1×10^6 M109 cells (a syngeneic lung carcinoma) in Balb/c strain, or 1×10^6 KB cells in nu/nu strain, in 100 μL are injected in the subcutis of the dorsal medial area (right axilla).
METHOD. Toxicity as Measured by Weight Loss. The percentage weight change of the test animals is determined on selected days post-tumor inoculation (PTI), and during dosing. The results are graphed.

[11] = test system: MDA-MB-231 tumors; assay: TNBC tumor assay, s.c. MDA-MB-231 xenografts; format: in vivo, nu/nu mice; settings: 2 μmol/kg i.v. TIW, 2 weeks
Source text: METHOD. TNBC Tumor Assay. Triple negative breast cancer (TNBC) is a subtype characterized by lack of gene expression for estrogen, progesterone and Her2/neu. TNBC is difficult to treat, and the resulting death rate in patients is reportedly disproportionately higher than for any other subtype of breast cancer. A TNBC xenograft model was generated in an analogous way to the KB and M109 models described herein by implanting MDA-MB-231 breast cancer cells in nu/nu mice. Dosing is initiated when the s.c. tumors have an average volume between 110-150 (generally 130) mm^3 (t0), typically 17 days post tumor inoculation (PTI).
EXAMPLE. […] Without being bound by theory, it is believed herein that the test animals were cured of the triple negative breast cancer.

[12] = test system: KB-CR2000 (cisplatin resistant) tumors; assay: Cisplatin-resistant KB-CR2000 tumor model; format: in vivo, mice
[13] = Maximum tolerated dose (MTD); design: species or system Sprague-Dawley rats; settings: rat, in vivo
Method: EXAMPLE. Maximum tolerated dose (MTD). […] Test compounds are administered by i.v., BIW, 2 wks in female Sprague-Dawley rats. Comparator compound EC0531 has a MTD of 0.33 μmol/kg, while EC1456 has a MTD of at least 0.51 μmol/kg, a […], as shown in FIG. 20. Histopathologic changes were not observed with doses of EC1456 at or below the MTD.

T1 sequence (P15328 25-234): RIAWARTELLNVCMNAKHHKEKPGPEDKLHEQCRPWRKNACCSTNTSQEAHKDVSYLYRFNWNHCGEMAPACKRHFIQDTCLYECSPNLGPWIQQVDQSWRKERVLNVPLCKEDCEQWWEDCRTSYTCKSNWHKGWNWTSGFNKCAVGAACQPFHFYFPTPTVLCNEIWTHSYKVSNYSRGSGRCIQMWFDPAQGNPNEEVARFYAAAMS

CCCC(=O)OCN(C(=O)[C@@H](NC(=O)[C@H]1CCCCN1C)C(C)CC)C(C[C@@H](OC(C)=O)c1nc(C(=O)N[C@@H](Cc2ccc(O)cc2)C[C@H](C)C(=O)NNC(=O)OCCSSC[C@@H](NC(=O)[C@H](CCC(=O)NC[C@H](O)[C@@H](O)[C@H](O)[C@H](O)CO)NC(=O)[C@@H](CCC(=O)O)NC(=O)[C@H](CCC(=O)NC[C@H](O)[C@@H](O)[C@H](O)[C@H](O)CO)NC(=O)[C@@H](CCC(=O)O)NC(=O)[C@H](CCC(=O)NC[C@H](O)[C@@H](O)[C@H](O)[C@H](O)CO)NC(=O)CC[C@@H](NC(=O)c2ccc(NCc3cnc4nc(N)[nH]c(=O)c4n3)cc2)C(=O)O)C(=O)O)cs1)C(C)C (stereo partly drawn) [EC1456]
Relative Affinity (a) compared to folic acid [1]: 0.27
improvement in specificity compared to comparator EC0531 [2]: 4 fold
In vitro specificity (fold) (d) ([2]; IC50 competed group vs non-competed group): 944 fold
specificity for the folate receptor by folic acid competition ([2]; IC50 competed vs non-competed group): ca. 1000 fold
Competable up to 100 nM ([2]; KB): Yes
Competable up to 100 nM [3]: Yes
Competable up to 100 nM [4]: Yes
Competable up to 100 nM [5]: Yes
Activity (IC50) [6]: Inactive (a)
Activity (IC50) [7]: Inactive
Activity (IC50) [8]: Inactive
Activity (IC50) [9]: Inactive
Toxicity: Avg. Weight Loss ([10]; 0.5 μmol/kg, TIW, 3 weeks, untreated control 2.4%): <5%*
whole animal toxicity (body weight) ([10]; 1 μmol/kg TIW, 2 wk): did not result in any observable whole animal toxicity; also recorded: does not show any evidence of whole animal toxicity
complete response (test animals) ([10]; 1 μmol/kg i.v. TIW, 2 wk): 4/4
CR ([10]; 1.0 μmol/kg, TIW): 60%
CR ([10]; 2.0 μmol/kg, TIW): 100%
activity competable with excess EC0923 ([10]; EC0923 50 or 100 μmol/kg co-dosed): competable
In vivo activity (e) ([10]; subcutaneous KB tumor in nu/nu mice): CR
weight loss / gross whole animal toxicity [11]: did not cause gross whole animal toxicity; also recorded: not accompanied by significant weight loss
complete responses (test animals) ([11]; observation nearly 135 days): 4 of 5
CRs (test animals) ([12]; 2 μmol/kg i.v. TIW, 2 weeks): 5/5
regrowth of the tumor (test animals) ([12]; 2 μmol/kg i.v. TIW, 2 weeks): 1/5
weight loss / host animal toxicity ([12]; 2 μmol/kg i.v. TIW, 2 weeks): did not exhibit significant host animal toxicity; also recorded: did not cause any weight loss
test animals cured (no regrowth) ([12]; nearly 70 day observation period): 4/5
improvement in MTD over EC0531 [13]: 65%
MTD at 2 weeks ([13]; iv, BIW, 2 wks, female Sprague-Dawley rats): ≥ 0.51 µmol/kg
